{"source": "patent US20180000085A1", "about": "“USE OF PICOLINAMIDE COMPOUNDS WITH FUNGICIDAL ACTIVITY” (DOW AGROSCIENCES LLC, priority 2014, published 2018)", "key": {"[1]": {"test_system": "Zymoseptoria tritici", "assay": "Leaf blotch of wheat (SEPTTR) disease control on wheat seedlings", "format": "in vivo", "set-up": "key to SEPTTR 1DP, HV activity at 100 ppm (% control rating) / SEPTTR 3DC, HV activity at 100 ppm (% control rating) / SEPTTR disease control, 1DP / SEPTTR disease control, 3DC / SEPTTR 1DP disease control rating, HV activity / SEPTTR 3DC disease control rating, HV activity / SEPTTR 3DC, LV activity at 125.1 g/H (% Control rating) / SEPTTR 1DP, LV activity at 125.1 g/H (% Control rating) / SEPTTR 1DP disease control rating, LV activity at 125.1 g/H / SEPTTR 3DC disease control rating, LV activity at 125.1 g/H / SEPTTR 3DC disease control rating, HV activity at 100 ppm / SEPTTR 1DP disease control rating, HV activity at 100 ppm / HV activity at 100 ppm SEPTTR 3DC (disease control rating) / HV activity at 100 ppm SEPTTR 1DP (disease control rating) / LV activity at 125.1 g/H SEPTTR 1DP (disease control rating) / LV activity at 125.1 g/H SEPTTR 3DC (disease control rating): A: > 80; B: ≤ 80; C: Not Tested; D: No Activity Observed in the Reported Assay"}, "[2]": {"test_system": "Puccinia triticina", "assay": "Wheat brown rust (PUCCRT) disease control on wheat seedlings", "format": "in vivo", "set-up": "key to PUCCRT 3DC, HV activity at 100 ppm (% control rating) / PUCCRT disease control, 3DC / PUCCRT 1DP disease control rating, HV activity / PUCCRT 3DC disease control rating, HV activity / PUCCRT 3DC, LV activity at 125.1 g/H (% Control rating) / PUCCRT 1DP, LV activity at 125.1 g/H (% Control rating) / PUCCRT 3DC disease control rating, LV activity at 125.1 g/H / PUCCRT 1DP disease control rating, LV activity at 125.1 g/H / PUCCRT 3DC disease control rating, HV activity at 100 ppm / PUCCRT 1DP disease control rating, HV activity at 100 ppm / HV activity at 100 ppm PUCCRT 3DC (disease control rating) / LV activity at 125.1 g/H PUCCRT 1DP (disease control rating) / LV activity at 125.1 g/H PUCCRT 3DC (disease control rating): A: > 80; B: ≤ 80; C: Not Tested; D: No Activity Observed in the Reported Assay"}, "[3]": {"details": "low volume application, 125.1 g/H, 1 Day Protectant, wheat leaf blotch"}, "[4]": {"details": "low volume application, 125.1 g/H, 3 Day Curative, wheat leaf blotch"}, "[5]": {"details": "low volume application, 125.1 g/H, 1 Day Protectant, wheat brown rust"}, "[6]": {"details": "low volume application, 125.1 g/H, 3 Day Curative, wheat brown rust"}, "[7]": {"details": "low volume application, 125.1 g/H, 1 Day Protectant"}, "[8]": {"details": "low volume application, 125.1 g/H, 3 Day Curative"}, "[9]": {"details": "low volume application, 125.1 g/H, 1 day protectant"}, "[10]": {"details": "low volume application, 125.1 g/H, 3 day curative"}}, "data": [{"smiles": "CCOc1ccnc(C(=O)N[C@@H](C)C(=O)O[C@@H](C)[C@@H](CC(C)C)Oc2cc(F)ccc2F)c1O", "note": "[Cmpd 1040]", "values": [{"measurement": "HV activity at 100 ppm SEPTTR 1DP (disease control rating)", "setting": "[1]; HV application, 100 ppm, 1 Day Protectant, wheat leaf blotch", "value": "D"}, {"measurement": "HV activity at 100 ppm SEPTTR 3DC (disease control rating)", "setting": "[1]; HV application, 100 ppm, 3 Day Curative, wheat leaf blotch", "value": "D"}, {"measurement": "HV activity at 100 ppm PUCCRT 1DP (disease control rating)", "setting": "[2]; HV application, 100 ppm, 1 Day Protectant, wheat brown rust", "value": "B (≤ 80)"}, {"measurement": "HV activity at 100 ppm PUCCRT 3DC (disease control rating)", "setting": "[2]; HV application, 100 ppm, 3 Day Curative, wheat brown rust", "value": "A (> 80)"}]}, {"smiles": "CCOc1ccnc(C(=O)N[C@@H](C)C(=O)O[C@@H](C)[C@@H](CC(C)C)Oc2cccc(F)c2)c1OC(C)=O", "note": "[Cmpd 1107]", "values": [{"measurement": "LV activity at 125.1 g/H SEPTTR 1DP (disease control rating)", "setting": "[1]; [3]", "value": "D"}, {"measurement": "LV activity at 125.1 g/H SEPTTR 3DC (disease control rating)", "setting": "[1]; [4]", "value": "D"}, {"measurement": "LV activity at 125.1 g/H PUCCRT 1DP (disease control rating)", "setting": "[2]; [5]", "value": "B (≤ 80)"}, {"measurement": "LV activity at 125.1 g/H PUCCRT 3DC (disease control rating)", "setting": "[2]; [6]", "value": "B (≤ 80)"}]}, {"smiles": "CCC(CC)[C@@H](Oc1cccc(-c2ccccc2)c1)[C@H](C)OC(=O)[C@@H](NC(=O)c1nccc(OC)c1OCOC(C)=O)C(C)C", "note": "[Cmpd 654]", "values": [{"measurement": "SEPTTR 1DP, LV activity at 125.1 g/H (% Control rating)", "setting": "[1]; [7]", "value": "B (≤ 80)"}, {"measurement": "SEPTTR 3DC, LV activity at 125.1 g/H (% Control rating)", "setting": "[1]; [8]", "value": "D"}, {"measurement": "PUCCRT 1DP, LV activity at 125.1 g/H (% Control rating)", "setting": "[2]; [7]", "value": "A (> 80)"}, {"measurement": "PUCCRT 3DC, LV activity at 125.1 g/H (% Control rating)", "setting": "[2]; [8]", "value": "D"}]}, {"smiles": "COc1ccnc(C(=O)NC(C)C(=O)OC(C)COC(=O)C(C)C)c1OC(C)=O", "note": "(stereo not shown) [Cmpd 532]", "values": [{"measurement": "SEPTTR 1DP, LV activity at 125.1 g/H (% Control rating)", "setting": "[1]; [7]", "value": "B (≤ 80)"}, {"measurement": "SEPTTR 3DC, LV activity at 125.1 g/H (% Control rating)", "setting": "[1]; [8]", "value": "A (> 80)"}, {"measurement": "PUCCRT 1DP, LV activity at 125.1 g/H (% Control rating)", "setting": "[2]; [7]", "value": "D"}, {"measurement": "PUCCRT 3DC, LV activity at 125.1 g/H (% Control rating)", "setting": "[2]; [8]", "value": "D"}]}, {"smiles": "COc1ccnc(C(=O)N[C@@H](C)C(=O)O[C@@H](C)[C@@H](CC(C)C)Oc2cccc(F)c2)c1OC(C)=O", "note": "[Cmpd 1113]", "values": [{"measurement": "LV activity at 125.1 g/H SEPTTR 1DP (disease control rating)", "setting": "[1]; [3]", "value": "A (> 80)"}, {"measurement": "LV activity at 125.1 g/H SEPTTR 3DC (disease control rating)", "setting": "[1]; [4]", "value": "A (> 80)"}, {"measurement": "LV activity at 125.1 g/H PUCCRT 1DP (disease control rating)", "setting": "[2]; [5]", "value": "A (> 80)"}, {"measurement": "LV activity at 125.1 g/H PUCCRT 3DC (disease control rating)", "setting": "[2]; [6]", "value": "A (> 80)"}]}, {"smiles": "C=CC[C@@H](Oc1cccc(Cl)c1)[C@H](C)OC(=O)[C@H](C)NC(=O)c1nccc(OC)c1OCOC(C)=O", "note": "[Cmpd 1083]", "values": [{"measurement": "LV activity at 125.1 g/H SEPTTR 1DP (disease control rating)", "setting": "[1]; [3]", "value": "B (≤ 80)"}, {"measurement": "LV activity at 125.1 g/H SEPTTR 3DC (disease control rating)", "setting": "[1]; [4]", "value": "A (> 80)"}, {"measurement": "LV activity at 125.1 g/H PUCCRT 1DP (disease control rating)", "setting": "[2]; [5]", "value": "A (> 80)"}, {"measurement": "LV activity at 125.1 g/H PUCCRT 3DC (disease control rating)", "setting": "[2]; [6]", "value": "A (> 80)"}]}, {"smiles": "CCC(CC)C(Oc1cccc(F)c1)C(C)OC(=O)C(CC(C)C)NC(=O)c1nccc(OC)c1OCOC(C)=O", "note": "(stereo not shown) [Cmpd 680]", "values": [{"measurement": "SEPTTR 1DP disease control rating, LV activity at 125.1 g/H", "setting": "[1]; [9]", "value": "B (≤ 80)"}, {"measurement": "SEPTTR 3DC disease control rating, LV activity at 125.1 g/H", "setting": "[1]; [10]", "value": "B (≤ 80)"}, {"measurement": "PUCCRT 1DP disease control rating, LV activity at 125.1 g/H", "setting": "[2]; [9]", "value": "D"}, {"measurement": "PUCCRT 3DC disease control rating, LV activity at 125.1 g/H", "setting": "[2]; [10]", "value": "B (≤ 80)"}]}, {"smiles": "C=CC[C@@H](OCc1ccccc1)[C@H](C)OC(=O)[C@H](C)NC(=O)c1nccc(OC)c1OCOC(=O)COCC", "note": "[Cmpd 517]", "values": [{"measurement": "SEPTTR 1DP, LV activity at 125.1 g/H (% Control rating)", "setting": "[1]; [7]", "value": "A (> 80)"}, {"measurement": "SEPTTR 3DC, LV activity at 125.1 g/H (% Control rating)", "setting": "[1]; [8]", "value": "D"}, {"measurement": "PUCCRT 1DP, LV activity at 125.1 g/H (% Control rating)", "setting": "[2]; [7]", "value": "A (> 80)"}, {"measurement": "PUCCRT 3DC, LV activity at 125.1 g/H (% Control rating)", "setting": "[2]; [8]", "value": "A (> 80)"}]}, {"smiles": "COc1ccnc(C(=O)N[C@@H](C)C(=O)O[C@@H](C)[C@H](Oc2ccc(-c3ccccc3)cc2)C(C)C)c1OC(C)=O", "note": "[Cmpd 625]", "values": [{"measurement": "SEPTTR 1DP, LV activity at 125.1 g/H (% Control rating)", "setting": "[1]; [7]", "value": "D"}, {"measurement": "SEPTTR 3DC, LV activity at 125.1 g/H (% Control rating)", "setting": "[1]; [8]", "value": "D"}, {"measurement": "PUCCRT 1DP, LV activity at 125.1 g/H (% Control rating)", "setting": "[2]; [7]", "value": "A (> 80)"}, {"measurement": "PUCCRT 3DC, LV activity at 125.1 g/H (% Control rating)", "setting": "[2]; [8]", "value": "B (≤ 80)"}]}, {"smiles": "COc1ccnc(C(=O)NC(C)C(=O)OC(C)C(Oc2ccc3ccccc3c2)C(C)C)c1O", "note": "(stereo not shown) [Cmpd 398]", "values": [{"measurement": "SEPTTR 1DP disease control rating, HV activity", "setting": "[1]; HV application at 100 ppm, 1 Day Protectant, wheat leaf blotch", "value": "D"}, {"measurement": "SEPTTR 3DC disease control rating, HV activity", "setting": "[1]; HV application at 100 ppm, 3 Day Curative, wheat leaf blotch", "value": "B (≤ 80)"}, {"measurement": "PUCCRT 1DP disease control rating, HV activity", "setting": "[2]; HV application at 100 ppm, 1 Day Protectant, wheat brown rust", "value": "A (> 80)"}, {"measurement": "PUCCRT 3DC disease control rating, HV activity", "setting": "[2]; HV application at 100 ppm, 3 Day Curative, wheat brown rust", "value": "B (≤ 80)"}]}]}
